Experimental data reported in ChEMBL document CHEMBL3507680, “University of Dundee, Gates Library screen for HepG2 cell viability”.

Experiment: Human HepG2 cell viability assay in 384 well format
Type: toxicity, cell-based
Parameters: dose 125 nL, time 70.5 hour; concentration not given beside the values
Conditions: HepG2 cells, read-out: Inhibition

O=C(CCNc1ncccn1)NCc1ccc(Br)s1
cytotoxicity at 70.5 h: -11.3%

CCc1ccc(CNC(=O)CCNS(=O)(=O)c2cn(C)c(C)n2)s1
cytotoxicity at 70.5 h: -7.93%

O=C(CN1C=Nc2ccccc2S1(=O)=O)NC1CCCCC1
cytotoxicity at 70.5 h: 3.38%

O=C(c1cc(C2CC2)[nH]n1)N1CCCN(c2nccs2)CC1
cytotoxicity at 70.5 h: -5.32%

CC(NC(=O)CN1C=Nc2ccccc2S1(=O)=O)C1CC1 (stereo not given)
cytotoxicity at 70.5 h: 11%

Cc1csc(N2CCN(C(=O)c3cc(C4CC4)[nH]n3)CC2)n1
cytotoxicity at 70.5 h: -5.91%

CCCc1nc(C)c(C(=O)NCc2ccc(C)n2C)s1
cytotoxicity at 70.5 h: 17.6%

Cc1cnn(CCC(=O)NS(=O)(=O)N2CCCc3ccccc32)c1
cytotoxicity at 70.5 h: -5.92%

Cc1cnn(CCC(=O)NS(=O)(=O)N2CCc3ccccc32)c1
cytotoxicity at 70.5 h: -8.38%

Cc1c(Br)cccc1C(=O)NCc1cnn(C)c1
cytotoxicity at 70.5 h: 2.04%

Cc1c(NC(C)C(C)C)cccc1C(=O)NCc1nccn1C (stereo not given)
cytotoxicity at 70.5 h: -3.37%

O=C(CC1=CCCCC1)NCc1ccnc(OC2CCOCC2)c1
cytotoxicity at 70.5 h: -6.35%

CCOC(=O)c1ccc(CNC(=O)c2ccc(C)nc2)o1
cytotoxicity at 70.5 h: 11%

Cc1cc(C(=O)OCC2CCCN2C(N)=O)c(C)o1 (stereo not given)
cytotoxicity at 70.5 h: -6.63%

COc1ccccc1CC1CCN(C(=O)CCc2ccccn2)CC1
cytotoxicity at 70.5 h: -8.07%

CCOC(=O)c1ccc(CNC(=O)c2ccncc2Cl)o1
cytotoxicity at 70.5 h: -7.26%

Cc1nc(C(C)C)sc1C(=O)N(C)Cc1cnn(C)c1
cytotoxicity at 70.5 h: 14.2%

COc1ccccc1CC1CCCN(CCN2CCOC2=O)C1 (stereo not given)
cytotoxicity at 70.5 h: -7.17%

O=C(CS(=O)(=O)c1ccc(Cl)cc1)NC1CCCc2ccccc21 (stereo not given)
cytotoxicity at 70.5 h: 1.89%

Cc1noc(C)c1C(=O)NCCN1CCN(c2ccccc2)CC1
cytotoxicity at 70.5 h: 1.76%

CS(=O)(=O)NC1CCCN(C(=O)Nc2cccnc2N2CCCC2)C1 (stereo not given)
cytotoxicity at 70.5 h: 0.921%

COCCn1nc(C(=O)N(C)Cc2ccc3ccccc3c2)ccc1=O
cytotoxicity at 70.5 h: -0.954%

Cc1ccsc1C(=O)N1CCC(Nc2cccnc2)CC1
cytotoxicity at 70.5 h: -4.2%

COCCOc1ccc(NC(=O)N2CCOC(C(N)=O)C2)cc1F (stereo not given)
cytotoxicity at 70.5 h: 25.8%

CC(C)c1nnc2n1CCN(C(=O)c1cn(-c3ccccc3)nn1)C2
cytotoxicity at 70.5 h: -6.83%

N#CCSCCCN1CCN(C(=O)c2cccc(Cl)c2)CC1
cytotoxicity at 70.5 h: 2.68%

COCCn1nc(C(=O)N(C)Cc2cccnc2)ccc1=O
cytotoxicity at 70.5 h: 4.23%

COCCNC(=O)CN(C)CCn1nc2ccccn2c1=O
cytotoxicity at 70.5 h: -5.55%

COC(=O)C(C)(C)NC(=O)C1CC(=O)N(C2CC2)C1 (stereo not given)
cytotoxicity at 70.5 h: -6.5%

CCOC(=O)N1CCN(C(=O)c2cc(-c3ccccc3F)on2)CC1
cytotoxicity at 70.5 h: -0.971%

O=C(NCc1cccnc1)NC1CCCN(c2ncccn2)C1 (stereo not given)
cytotoxicity at 70.5 h: -10.3%

O=C(NCc1cccc(F)c1)NC1CCCN(c2ncccn2)C1 (stereo not given)
cytotoxicity at 70.5 h: -9.75%

N#Cc1ccc(CNC(=O)NC2CCCN(c3ncccn3)C2)cc1 (stereo not given)
cytotoxicity at 70.5 h: -9.27%

Cc1ccc(CNC(=O)NC2CCCN(c3ncccn3)C2)n1C (stereo not given)
cytotoxicity at 70.5 h: -8.01%

CN(C)C(=O)Cc1ccc(NC(=O)NC2CCCC2)cc1
cytotoxicity at 70.5 h: -7.5%

CC(C)CN1CCN(C(=O)c2cc(=O)c3ccccc3[nH]2)CC1
cytotoxicity at 70.5 h: -2.68%

COCc1ccccc1NC(=O)NCc1ccc(OCC2CC2)nc1
cytotoxicity at 70.5 h: -7.17%

O=C(NCc1ccc(OCC2CC2)nc1)Nc1c(F)cccc1F
cytotoxicity at 70.5 h: -2.96%

Cc1nn(CC(=O)N2CCCN(c3cccnn3)CC2)c(C)c1Cl
cytotoxicity at 70.5 h: 0.771%

Cc1nc(CC(=O)N2CCN(Cc3ccc(C#N)cc3)CC2)cs1
cytotoxicity at 70.5 h: -1.78%

CCOc1ccc(S(=O)(=O)NC(=O)c2c(C)noc2C(C)C)cc1
cytotoxicity at 70.5 h: 1.8%

Cc1ccc(CCCC(=O)N(C)CCN2CCOCC2)cc1
cytotoxicity at 70.5 h: 13.8%

COc1ccc(CCC(=O)N(C)CCN2CCOCC2)cc1OC
cytotoxicity at 70.5 h: -7.02%

Cc1cnn(CC2CCCN2C(=O)Cc2c(C)noc2Cl)c1 (stereo not given)
cytotoxicity at 70.5 h: -4.41%

Cc1nccn1C1CCCN(C(=O)c2cnn(C)c2C2CC2)C1 (stereo not given)
cytotoxicity at 70.5 h: -0.648%

Cc1ncncc1C(=O)N1CCCC(n2ccnc2C)C1 (stereo not given)
cytotoxicity at 70.5 h: 1.79%

CC1CCCCN1C(=O)c1n[nH]c(=O)c2ccccc12 (stereo not given)
cytotoxicity at 70.5 h: 32.4%

CC(OCCCNC(=O)c1cccnc1O)c1ccccc1 (stereo not given)
cytotoxicity at 70.5 h: -1.73%

CC(=O)NCCNC(=O)c1ccc(C)c(-n2cccc2)c1
cytotoxicity at 70.5 h: -10.2%

Cc1ccc(C(=O)NC2CCOc3ccccc32)cc1S(C)(=O)=O (stereo not given)
cytotoxicity at 70.5 h: 27.5%

COC(=O)c1ccoc1CN(C)CC(=O)N(C)C
cytotoxicity at 70.5 h: -8.41%

O=C(NCc1ccccc1F)N1CCCCC1C1OCCO1 (stereo not given)
cytotoxicity at 70.5 h: -17.1%

CCCc1noc(C(C)N2CCN(c3ccc(C#N)cn3)CC2)n1 (stereo not given)
cytotoxicity at 70.5 h: -10.8%

CC(c1nc(C(C)(C)C)no1)N1CCN(c2ccc(C#N)cn2)CC1 (stereo not given)
cytotoxicity at 70.5 h: -13.9%

Cn1ccc2c(C(=O)N3CCN(C(=O)C4CCCC4)CC3)cccc21
cytotoxicity at 70.5 h: -5.41%

CC(=O)N(C)C1CCN(C(=O)c2cccc3c2ccn3C)CC1
cytotoxicity at 70.5 h: 24.8%

CC(C)C(C)NC(=O)Nc1ccc(CS(=O)(=O)C(C)C)cc1 (stereo not given)
cytotoxicity at 70.5 h: -12.6%

CNC(=O)C1CCCCN1C(=O)c1n[nH]c(=O)c2ccccc12 (stereo not given)
cytotoxicity at 70.5 h: -6.33%

O=C(CCNC(=O)c1cccc(OC(F)F)c1)Nc1cccnc1
cytotoxicity at 70.5 h: -3.8%

COc1cccc2c1OCC(NC(=O)NCCc1ccccn1)C2 (stereo not given)
cytotoxicity at 70.5 h: -9.54%

CC(C)NC(=O)Nc1ccc(CS(C)(=O)=O)cc1
cytotoxicity at 70.5 h: -0.657%

Cc1cnn(CC2CCCN2C(=O)CCc2c(C)nn(C)c2C)c1 (stereo not given)
cytotoxicity at 70.5 h: -18.5%

CC(C)c1ccc(C(CN)N2CCc3sccc3C2)cc1 (stereo not given)
cytotoxicity at 70.5 h: -2.57%

CCCc1noc(CCC(=O)N2CCCCC2Cn2cc(C)cn2)n1 (stereo not given)
cytotoxicity at 70.5 h: -13.5%

COc1cccc(N2CCN(CCC(=O)NC3CCCCC3)CC2)c1
cytotoxicity at 70.5 h: 16.7%

Cc1ccc(CCNC(=O)N2CCC(Cc3cnn(C)c3)C2)cn1 (stereo not given)
cytotoxicity at 70.5 h: -1.42%

COc1ccc(C(=O)NCCCOC(C)c2ccccc2)c(OC)c1 (stereo not given)
cytotoxicity at 70.5 h: -11.1%

Cc1cnn(CC2CCCN2C(=O)Cc2c(C)noc2C)c1 (stereo not given)
cytotoxicity at 70.5 h: -14%

CN(CCc1ccncc1)C1CCCN(Cc2noc(C3CC3)n2)C1 (stereo not given)
cytotoxicity at 70.5 h: -2.71%

Cc1ccc(O)c(CNC2CCc3nc(C)nn3C2)n1 (stereo not given)
cytotoxicity at 70.5 h: -0.718%

COCCOCC(=O)Nc1cc(C)ccc1F
cytotoxicity at 70.5 h: 4.73%

CCc1ccc(CC(=O)N2CCN(c3nccn3C)CC2)cc1
cytotoxicity at 70.5 h: 8.19%

CN(CCn1cccn1)C1CCCN(Cc2noc(C3CC3)n2)C1 (stereo not given)
cytotoxicity at 70.5 h: 12.7%

CN(Cc1nc2ccccc2s1)C1CCCN(c2cccnn2)C1 (stereo not given)
cytotoxicity at 70.5 h: -11%

O=C(CN1CCS(=O)(=O)CC1)NCc1ccccc1F
cytotoxicity at 70.5 h: -8.79%

CCCC(=O)NC(C)(C)Cc1ccccc1OC
cytotoxicity at 70.5 h: -12.8%

CCSCCC(=O)NC1CCN(C(C)c2ccccc2)CC1 (stereo not given)
cytotoxicity at 70.5 h: -10.7%

N#CCCN(Cc1cccnc1)C(=O)c1cccc(-n2cnnn2)c1
cytotoxicity at 70.5 h: -8.57%

COc1ccc(S(=O)(=O)C(C)C(=O)NCCOc2cccc(C)c2)cc1 (stereo not given)
cytotoxicity at 70.5 h: -3.65%

Cc1cccnc1CNC(=O)NC(C)Cc1c(C)nn(C)c1C (stereo not given)
cytotoxicity at 70.5 h: -5.5%

COC(=O)N1CCCC(C(=O)Nc2nc(C)c(SC)s2)C1 (stereo not given)
cytotoxicity at 70.5 h: -9.54%

CCc1nsc(N2CCN(C(=O)c3ccnc(N(C)C)c3)CC2)n1
cytotoxicity at 70.5 h: -6.45%

Cn1cc(CNCCc2nccs2)c(-c2cccnc2)n1
cytotoxicity at 70.5 h: -8.44%

Cc1nc(NC(=O)COCC2CC2)ccc1Br
cytotoxicity at 70.5 h: -8.55%

CN(Cc1nc2ccccc2c(=O)[nH]1)C1CC(=O)N(C2CC2)C1=O (stereo not given)
cytotoxicity at 70.5 h: -12.1%
